Assay results published in US10023559B2 (Hoffmann-La Roche Inc., priority 2014, dated 2018).

Experiments:
rat TAAR1 = rat TAAR1 (Rattus norvegicus (Rat), UniProt Q923Y9); assay: Radioligand binding assay on rat TAAR1; settings: read-out: Ki(μM) rat; rat TAAR1, HEK-293 membranes, second value of cell pair mouse/rat
Experimental: Membrane Preparation and Radioligand Binding.
HEK-293 cells stably expressing rat TAAR1 were maintained at 37° C. and 5% CO2 in DMEM high glucose medium, containing fetal calf serum (10%, heat inactivated for 30 min at 56° C.), penicillin/streptomycin (1%), and 375 μg/ml geneticin (Gibco). Cells were released from culture flasks using trypsin/EDTA, harvested, washed twice with ice-cold PBS (without Ca^2+ and Mg^2+), pelleted at 1,000 rpm for 5 min at 4° C., frozen and stored at −80° C. Frozen pellets were suspended in 20 ml HEPES-NaOH (20 mM, pH 7.4) containing 10 mM EDTA and homogenized with a Polytron (PT 6000, Kinematica) at 14,000 rpm for 20 s. The homogenate was centrifuged at 48,000×g for 30 min at 4° C. Subsequently, the supernatant was removed and discarded, and the pellet resuspended in 20 ml HEPES-NaOH (20 mM, pH 7.4) containing 0.1 mM EDTA using the Polytron (20 s at 14,000 rpm). This procedure was repeated and the final pellet resuspended in HEPES-NaOH containing 0.1 mM EDTA and homogenized using the Polytron. Typically, aliquots of 2 ml membrane portions were stored at −80° C. With each new membrane batch the dissociation constant (Kd) was determined via a saturation curve. […] Nonspecific binding was defined as the amount of [H]—(S)-4-[(ethyl-phenyl-amino)-methyl]-4,5-dihydro-oxazol-2-ylamine bound in the presence of 10 M unlabeled ligand. All compounds were tested at a broad range of concentrations (10 pM to 10 μM) in duplicates. […] The 96 deep well plates were incubated for 1 hr at 4° C. Incubations were terminated by rapid filtration through Unifilter-96 plates (Packard Instrument Company) and glass filters GF/C (Perkin Elmer) presoaked for 1 hr in polyethylenimine (0.3%) and washed 3 times with 1 ml of cold binding buffer. After addition of 45 μl of Microscint 40 (PerkinElmer) the Unifilter-96 plate was sealed and after 1 hr the radioactivity counted using a TopCount Microplate Scintillation Counter (Packard Instrument Company).

mouse TAAR1 = mouse TAAR1 (Mus musculus (Mouse), UniProt Q923Y8); assay: Radioligand binding assay on mouse TAAR1
mouse TAAR1, sequence (Q923Y8 whole entry): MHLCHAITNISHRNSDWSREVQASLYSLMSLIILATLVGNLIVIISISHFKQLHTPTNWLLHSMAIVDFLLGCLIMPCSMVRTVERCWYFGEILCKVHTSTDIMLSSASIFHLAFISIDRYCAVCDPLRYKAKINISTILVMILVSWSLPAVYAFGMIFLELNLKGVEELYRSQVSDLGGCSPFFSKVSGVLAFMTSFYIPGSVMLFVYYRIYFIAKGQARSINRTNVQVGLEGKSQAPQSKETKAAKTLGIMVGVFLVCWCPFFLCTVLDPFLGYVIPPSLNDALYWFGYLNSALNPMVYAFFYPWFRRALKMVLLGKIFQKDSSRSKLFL

rat TAAR1, sequence (Q923Y9 whole entry): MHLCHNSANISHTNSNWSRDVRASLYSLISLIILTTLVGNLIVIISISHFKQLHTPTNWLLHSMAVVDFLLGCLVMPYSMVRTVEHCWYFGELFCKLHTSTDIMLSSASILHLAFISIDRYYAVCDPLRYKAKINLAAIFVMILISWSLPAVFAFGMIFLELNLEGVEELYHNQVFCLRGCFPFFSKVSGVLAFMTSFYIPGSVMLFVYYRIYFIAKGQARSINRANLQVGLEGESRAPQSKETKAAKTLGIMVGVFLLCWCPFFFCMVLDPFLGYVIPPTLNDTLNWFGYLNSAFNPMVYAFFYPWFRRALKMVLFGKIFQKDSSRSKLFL

SMILES	Ki (rat TAAR1) [µM]	Ki (mouse TAAR1) [nM]
CCc1n[nH]c(C(=O)Nc2ccc(C=C3CNC3)c(F)c2)c1C [Example 88, N-(4-(azetidin-3-ylidenemethyl)-3-fluorophenyl)-3-ethyl-4-methyl-1H-pyrazole-5-carboxamide]	0.005	17.4
F[C@@H]1CN[C@@H]1Cc1ccccc1 [Example 92, (2R,3R)-2-benzyl-3-fluoroazetidine]	0.607	244
CCOc1ccc(C(=O)Nc2ccc(C[C@H]3NC[C@H]3F)cc2)cn1 [Example 122, 6-ethoxy-N-(4-(((2R,3R)-3-fluoroazetidin-2-yl)methyl)phenyl)nicotinamide]	1.16	9.7
O=C(Nc1ccc(C[C@@H]2CCN2)cc1)c1cnc(C(F)(F)F)nc1 [Example 78, N-[4-[[(2R)-azetidin-2-yl]methyl]phenyl]-2-(trifluoromethyl)pyrimidine-5-carboxamide]	0.269	29.3
O=C(Nc1ccc(CC2(F)CNC2)cc1)Nc1ccc(C(F)(F)F)cc1 [Example 105, 1-[4-[(3-fluoroazetidin-3-yl)methyl]phenyl]-3-[4-(trifluoromethyl)phenyl]urea]	0.0016	1.9
O=C(Nc1ccc(Cl)cc1)c1ccc(OC2CNC2)cc1 [Example 23, 4-(azetidin-3-yloxy)-N-(4-chlorophenyl)benzamide]	0.038	9.9
O=C(Nc1ccc(OC2CNC2)cc1)c1[nH]nc(C2CC2)c1F [Example 42, N-[4-(azetidin-3-yloxy)phenyl]-3-cyclopropyl-4-fluoro-1H-pyrazole-5-carboxamide]	0.113	15
CO[C@H]1CN[C@H]1Cc1ccccc1 [Example 94, (2S,3S)-2-benzyl-3-methoxyazetidine]	0.767	4050
O=C(Nc1ccc(C=C2CNC2)cc1)c1cnc(C(F)(F)F)nc1 [Example 59, N-[4-(azetidin-3-ylidenemethyl)phenyl]-2-(trifluoromethyl)pyrimidine-5-carboxamide]	0.0079	8.9
O=C(Nc1ccc(C=C2CNC2)cc1)c1n[nH]c(C2CC2)c1Cl [Example 58, N-[4-(azetidin-3-ylidenemethyl)phenyl]-4-chloro-3-cyclopropyl-1H-pyrazole-5-carboxamide]	0.0188	1.4
Cc1cc(C(=O)Nc2cc(F)c(C=C3CNC3)c(F)c2)nc(C(F)(F)F)n1 [Example 82, N-(4-(azetidin-3-ylidenemethyl)-3,5-difluorophenyl)-6-methyl-2-(trifluoromethyl)pyrimidine-4-carboxamide]	0.0055	27.8
O=C(Nc1ccc(C[C@H]2CCN2)cc1)c1ccc(Cl)nc1 [Example 81, N-[4-[[(2S)-azetidin-2-yl]methyl]phenyl]-6-chloro-pyridine-3-carboxamide]	0.0202	4.1
O=C(Nc1ccc(SC2CNC2)cc1)Nc1cccc(Cl)c1 [Example 112, 1-[4-(azetidin-3-ylsulfanyl)phenyl]-3-(3-chlorophenyl)urea]	0.0111	11.1
Cc1cc(C(=O)Nc2ccc(C[C@@H]3NC[C@@H]3F)cc2)nc(C(F)(F)F)n1 [Example 126, N-(4-(((2S,3S)-3-fluoroazetidin-2-yl)methyl)phenyl)-6-methyl-2-(trifluoromethyl)pyrimidine-4-carboxamide]	0.0224	22.9
O=C(Nc1ccc(C=C2CNC2)c(F)c1)c1ccc(Cl)nc1 [Example 86, N-(4-(azetidin-3-ylidenemethyl)-3-fluorophenyl)-6-chloronicotinamide]	0.0038	1.8
O=C(Nc1ccc(C=C2CNC2)cc1)c1ccc(Cl)cc1 [Example 61, N-[4-(azetidin-3-ylidenemethyl)phenyl]-4-chloro-benzamide]	0.246	121
O=C(Nc1ccc(C[C@@H]2NC[C@@H]2F)cc1)c1cnc(C(F)(F)F)nc1 [Example 130, N-(4-(((2S,3S)-3-fluoroazetidin-2-yl)methyl)phenyl)-2-(trifluoromethyl)pyrimidine-5-carboxamide]	0.0156	28.2
